Measurements reported in the supplement of paper PMC10307832.

Key:
Test in all cases: relative viability (nuclei count vs DMSO), 5 days (fraction); higher = more cells survive
[1] = compound: COC1=CC=C(C=C1)CN2C=CC3=C2C=C(C=C3)C(=O)NO + CS(=O)(=O)N1CCN(Cc2cc3nc(-c4cccc5[nH]ncc45)nc(N4CCOCC4)c3s2)CC1 [Pictilisib] (partner 1 µM)
How it was run: (§1)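 Lung cancer cell lines were seeded in 1536-well plates and dosed by pin tool the next day, with either a single drug or a fixed anchor-drug dose combined with five library-drug doses (not always all listed) spaced in √10 steps. Five days later, one step fixed the cells and stained their nuclei (final 0.05% Triton X-100, 1% formaldehyde, 1 ug/ml Hoechst), and nuclei were counted on 4× images. Relative viability is the nuclei count in treated wells divided by the count in vehicle wells, and each value is the median of duplicate plates.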

[2] = compound: COC1=CC=C(C=C1)CN2C=CC3=C2C=C(C=C3)C(=O)NO + Nc1ncn([C@H]2C[C@H](O)[C@@H](CO)O2)c(=O)n1 [Decitabine] (partner 2 µM)
How it was run: as §1

Veliparib + Trametinib = compound: C[C@]1(c2nc3c(C(N)=O)cccc3[nH]2)CCCN1 [Veliparib] + CC(=O)Nc1cccc(-n2c(=O)n(C3CC3)c(=O)c3c(Nc4ccc(I)cc4F)n(C)c(=O)c(C)c32)c1 [Trametinib] (partner 0.02 µM)
How it was run: as §1

Veliparib + Crizotinib = compound: C[C@]1(c2nc3c(C(N)=O)cccc3[nH]2)CCCN1 [Veliparib] + C[C@@H](Oc1cc(-c2cnn(C3CCNCC3)c2)cnc1N)c1c(Cl)ccc(F)c1Cl [Crizotinib] (partner 1 µM)
How it was run: as §1

SW 1573
relative viability ([1]; first compound 0.253 µM): 0.478 | relative viability ([1]; first compound 0.8 µM): 0.554 | relative viability ([1]; first compound 2.53 µM): 0.532 | relative viability ([1]; first compound 8 µM): 0.486 | relative viability ([2]; first compound 0.253 µM): 0.525 | relative viability ([2]; first compound 0.8 µM): 0.59 | relative viability ([2]; first compound 2.53 µM): 0.471 | relative viability ([2]; first compound 8 µM): 0.258 | relative viability (Veliparib + Trametinib; first compound 0.06325 µM): 0.474 | relative viability (Veliparib + Trametinib; first compound 0.2 µM): 0.52 | relative viability (Veliparib + Trametinib; first compound 0.6325 µM): 0.513 | relative viability (Veliparib + Trametinib; first compound 2 µM): 0.548 | relative viability (Veliparib + Crizotinib; first compound 0.02 µM): 0.986 | relative viability (Veliparib + Crizotinib; first compound 0.06325 µM): 0.629 | relative viability (Veliparib + Crizotinib; first compound 0.2 µM): 0.781 | relative viability (Veliparib + Crizotinib; first compound 0.6325 µM): 0.85 | relative viability (Veliparib + Crizotinib; first compound 2 µM): 0.79
